Source: PubChem BioAssay (NCI)
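How tested: cells in 96-well plates exposed to compound for 48 hours at five concentrations. At the TGI there is no net growth.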

Columns and labels:
Experiment in all cases: inhibition of tumour cell growth, NCI panel, 48 h
SK-MEL-28 melanoma = test system: SK-MEL-28 melanoma
SK-MEL-2 melanoma = test system: SK-MEL-2 melanoma
TK-10 renal = test system: TK-10 renal
UO-31 renal = test system: UO-31 renal
BT-549 breast = test system: BT-549 breast
COLO 205 colon = test system: COLO 205 colon
SN12C renal = test system: SN12C renal
HCT-15 colon = test system: HCT-15 colon
IGROV1 ovarian = test system: IGROV1 ovarian
UACC-62 melanoma = test system: UACC-62 melanoma
MDA-MB-231 breast = test system: MDA-MB-231 breast
OVCAR-3 ovarian = test system: OVCAR-3 ovarian
LOX IMVI melanoma = test system: LOX IMVI melanoma
OVCAR-8 ovarian = test system: OVCAR-8 ovarian
SNB-75 CNS = test system: SNB-75 CNS
SR leukemia = test system: SR leukemia
A549 NSCLC = test system: A549 NSCLC
NCI-H522 lung = test system: NCI-H522 lung
T-47D breast = test system: T-47D breast
SK-OV-3 ovarian = test system: SK-OV-3 ovarian
A498 renal = test system: A498 renal
ACHN renal = test system: ACHN renal
SNB-19 CNS = test system: SNB-19 CNS
UACC-257 melanoma = test system: UACC-257 melanoma
SF-268 CNS = test system: SF-268 CNS
HOP-62 NSCLC = test system: HOP-62 NSCLC
SF-295 CNS = test system: SF-295 CNS
DU-145 prostate = test system: DU-145 prostate
NCI-H460 lung = test system: NCI-H460 lung
NCI-H23 lung = test system: NCI-H23 lung
EKVX NSCLC = test system: EKVX NSCLC
M14 melanoma = test system: M14 melanoma
OVCAR-5 ovarian = test system: OVCAR-5 ovarian
HCT-116 colon = test system: HCT-116 colon
OVCAR-4 ovarian = test system: OVCAR-4 ovarian
786-0 renal = test system: 786-0 renal
MDA-N = test system: MDA-N
HOP-92 NSCLC = test system: HOP-92 NSCLC
KM12 colon = test system: KM12 colon
K-562 leukemia = test system: K-562 leukemia
CAKI-1 renal = test system: CAKI-1 renal
MCF7 breast = test system: MCF7 breast
CCRF-CEM leukemia = test system: CCRF-CEM leukemia
SF-539 CNS = test system: SF-539 CNS
MDA-MB-435 = test system: MDA-MB-435
SW-620 colon = test system: SW-620 colon
U251 CNS = test system: U251 CNS
HCC-2998 colon = test system: HCC-2998 colon
PC-3 prostate = test system: PC-3 prostate
MOLT-4 leukemia = test system: MOLT-4 leukemia
RXF 393 renal = test system: RXF 393 renal
MALME-3M melanoma = test system: MALME-3M melanoma
HT29 colon = test system: HT29 colon
NCI-H226 lung = test system: NCI-H226 lung
NCI/ADR-RES ovarian = test system: NCI/ADR-RES ovarian
RPMI-8226 leukemia = test system: RPMI-8226 leukemia
HS 578T breast = test system: HS 578T breast
HL-60(TB) leukemia = test system: HL-60(TB) leukemia
SK-MEL-5 melanoma = test system: SK-MEL-5 melanoma

CC(C)(C)C1CCC2c3c([nH]c4ccccc34)C3C(=O)N(c4cccc([N+](=O)[O-])c4)C(=O)C3C2C1 (centres undefined)
TGI (SK-MEL-28 melanoma): > 100 µM | TGI (SK-MEL-2 melanoma): 64.1 µM | TGI (TK-10 renal): > 100 µM | TGI (UO-31 renal): > 100 µM | TGI (BT-549 breast): 40 µM | TGI (COLO 205 colon): 73.6 µM | TGI (SN12C renal): 25.5 µM | TGI (HCT-15 colon): > 100 µM | TGI (IGROV1 ovarian): > 100 µM | TGI (UACC-62 melanoma): > 100 µM | TGI (MDA-MB-231 breast): 92.3 µM | TGI (OVCAR-3 ovarian): > 100 µM | TGI (LOX IMVI melanoma): 49.8 µM | TGI (OVCAR-8 ovarian): > 100 µM | TGI (SNB-75 CNS): > 100 µM | TGI (SR leukemia): > 100 µM | TGI (A549 NSCLC): > 100 µM | TGI (NCI-H522 lung): 48.8 µM | TGI (T-47D breast): > 100 µM | TGI (SK-OV-3 ovarian): > 100 µM | TGI (A498 renal): > 100 µM | TGI (ACHN renal): > 100 µM | TGI (SNB-19 CNS): > 100 µM | TGI (UACC-257 melanoma): 61.6 µM | TGI (SF-268 CNS): 77.6 µM | TGI (HOP-62 NSCLC): 99.4 µM | TGI (SF-295 CNS): > 100 µM | TGI (DU-145 prostate): > 100 µM | TGI (NCI-H460 lung): > 100 µM | TGI (NCI-H23 lung): > 100 µM | TGI (EKVX NSCLC): 66.8 µM | TGI (M14 melanoma): > 100 µM | TGI (OVCAR-5 ovarian): > 100 µM | TGI (HCT-116 colon): 40.4 µM | TGI (OVCAR-4 ovarian): > 100 µM | TGI (786-0 renal): 43.7 µM | TGI (MDA-N): 45.7 µM | TGI (HOP-92 NSCLC): > 100 µM | TGI (KM12 colon): 25.3 µM | TGI (K-562 leukemia): > 100 µM | TGI (CAKI-1 renal): 54.2 µM | TGI (MCF7 breast): > 100 µM | TGI (CCRF-CEM leukemia): > 100 µM | TGI (SF-539 CNS): > 100 µM | TGI (MDA-MB-435): 81.5 µM | TGI (SW-620 colon): > 100 µM | TGI (U251 CNS): > 100 µM | TGI (HCC-2998 colon): 63.4 µM | TGI (PC-3 prostate): > 100 µM | TGI (MOLT-4 leukemia): > 100 µM | TGI (RXF 393 renal): > 100 µM | TGI (MALME-3M melanoma): 59.7 µM | TGI (HT29 colon): > 100 µM | TGI (NCI-H226 lung): 53.1 µM | TGI (NCI/ADR-RES ovarian): 74.2 µM

Cc1nn(C2OC(CO)C(O)C(F)C2O)c(=O)[nH]c1=O (centres undefined)
TGI (SK-MEL-28 melanoma): > 100 µM | TGI (SK-MEL-2 melanoma): > 100 µM | TGI (TK-10 renal): > 100 µM | TGI (UO-31 renal): > 100 µM | TGI (BT-549 breast): > 100 µM | TGI (COLO 205 colon): > 100 µM | TGI (SN12C renal): > 100 µM | TGI (HCT-15 colon): > 100 µM | TGI (UACC-62 melanoma): > 100 µM | TGI (MDA-MB-231 breast): > 100 µM | TGI (OVCAR-3 ovarian): > 100 µM | TGI (LOX IMVI melanoma): > 100 µM | TGI (OVCAR-8 ovarian): > 100 µM | TGI (A549 NSCLC): > 100 µM | TGI (RPMI-8226 leukemia): > 100 µM | TGI (NCI-H522 lung): > 100 µM | TGI (HS 578T breast): > 100 µM | TGI (T-47D breast): > 100 µM | TGI (SK-OV-3 ovarian): > 100 µM | TGI (A498 renal): > 100 µM | TGI (ACHN renal): > 100 µM | TGI (SNB-19 CNS): > 100 µM | TGI (UACC-257 melanoma): > 100 µM | TGI (SF-268 CNS): > 100 µM | TGI (SF-295 CNS): > 100 µM | TGI (DU-145 prostate): > 100 µM | TGI (NCI-H460 lung): > 100 µM | TGI (NCI-H23 lung): > 100 µM | TGI (M14 melanoma): > 100 µM | TGI (OVCAR-5 ovarian): > 100 µM | TGI (HCT-116 colon): > 100 µM | TGI (OVCAR-4 ovarian): > 100 µM | TGI (786-0 renal): > 100 µM | TGI (MDA-N): > 100 µM | TGI (HOP-92 NSCLC): > 100 µM | TGI (K-562 leukemia): > 100 µM | TGI (HL-60(TB) leukemia): > 100 µM | TGI (CAKI-1 renal): > 100 µM | TGI (MCF7 breast): > 100 µM | TGI (SK-MEL-5 melanoma): > 100 µM | TGI (CCRF-CEM leukemia): > 100 µM | TGI (SF-539 CNS): > 100 µM | TGI (MDA-MB-435): > 100 µM | TGI (SW-620 colon): > 100 µM | TGI (U251 CNS): > 100 µM | TGI (HCC-2998 colon): > 100 µM | TGI (PC-3 prostate): > 100 µM | TGI (MOLT-4 leukemia): > 100 µM | TGI (MALME-3M melanoma): > 100 µM | TGI (HT29 colon): > 100 µM | TGI (NCI-H226 lung): > 100 µM | TGI (NCI/ADR-RES ovarian): > 100 µM

COc1cc(/C=C2\C(=O)N(c3cc(Cl)ccc3Cl)C(c3ccccc3)S2(=O)=O)cc(OC)c1OC (centres undefined)
TGI (SK-MEL-28 melanoma): > 100 µM | TGI (SK-MEL-2 melanoma): > 100 µM | TGI (TK-10 renal): > 100 µM | TGI (UO-31 renal): > 100 µM | TGI (BT-549 breast): > 100 µM | TGI (COLO 205 colon): > 100 µM | TGI (SN12C renal): > 100 µM | TGI (HCT-15 colon): > 100 µM | TGI (IGROV1 ovarian): > 100 µM | TGI (UACC-62 melanoma): > 100 µM | TGI (MDA-MB-231 breast): > 100 µM | TGI (OVCAR-3 ovarian): > 100 µM | TGI (LOX IMVI melanoma): > 100 µM | TGI (OVCAR-8 ovarian): > 100 µM | TGI (SNB-75 CNS): > 100 µM | TGI (SR leukemia): > 100 µM | TGI (A549 NSCLC): > 100 µM | TGI (RPMI-8226 leukemia): > 100 µM | TGI (NCI-H522 lung): > 100 µM | TGI (T-47D breast): > 100 µM | TGI (SK-OV-3 ovarian): > 100 µM | TGI (A498 renal): > 100 µM | TGI (ACHN renal): > 100 µM | TGI (SNB-19 CNS): > 100 µM | TGI (UACC-257 melanoma): > 100 µM | TGI (HOP-62 NSCLC): > 100 µM | TGI (SF-295 CNS): > 100 µM | TGI (DU-145 prostate): > 100 µM | TGI (NCI-H460 lung): > 100 µM | TGI (NCI-H23 lung): > 100 µM | TGI (EKVX NSCLC): > 100 µM | TGI (M14 melanoma): > 100 µM | TGI (OVCAR-5 ovarian): > 100 µM | TGI (HCT-116 colon): > 100 µM | TGI (OVCAR-4 ovarian): > 100 µM | TGI (786-0 renal): > 100 µM | TGI (MDA-N): 66.1 µM | TGI (HOP-92 NSCLC): > 100 µM | TGI (KM12 colon): > 100 µM | TGI (K-562 leukemia): > 100 µM | TGI (HL-60(TB) leukemia): 51.7 µM | TGI (CAKI-1 renal): > 100 µM | TGI (MCF7 breast): > 100 µM | TGI (SK-MEL-5 melanoma): > 100 µM | TGI (CCRF-CEM leukemia): > 100 µM | TGI (SF-539 CNS): > 100 µM | TGI (MDA-MB-435): 96.2 µM | TGI (SW-620 colon): > 100 µM | TGI (U251 CNS): > 100 µM | TGI (HCC-2998 colon): > 100 µM | TGI (PC-3 prostate): > 100 µM | TGI (MOLT-4 leukemia): 99.4 µM | TGI (RXF 393 renal): > 100 µM | TGI (MALME-3M melanoma): > 100 µM | TGI (HT29 colon): > 100 µM | TGI (NCI-H226 lung): > 100 µM | TGI (NCI/ADR-RES ovarian): > 100 µM
